Reference: patent publication US7585519B2, “Esters of L-carnitine or alkanoyl L-carnitines useful as cationic lipids for the intracellular delivery of pharmacologically active compounds” (Sigma-Tau Industrie Farmaceutiche Riunite S.p.A., priority 1999, dated 2009)
“And” between values parts separate entries of the source, which are not always exact repeats. Equal values may be shown once.

Columns and labels:
M109 cells = experiment: In-vitro cytotoxicity test (sulforhodamine B, SRB); assay type: cell-based, murine; conditions: for optical density reading at 540 nm (Mean): Table 2.3; for optical density reading at 540 nm (single reading): Table 2.3, listed as DMSO-CPT 83
Method: The toxicity assays were done on HeLa and M109 cells in 96-well plates. On the day after plating, the cells were treated with the molecules being tested for the next 48 hours. The cells were then washed with PBS and left in normal growth conditions for 48 hours. After removal of the growth medium, the cells were incubated on ice with 16% TCA, washed 3 times in H2O, treated for 30 minutes with sulforhodamine B (SRB) in 1% acetic acid, washed 3 times in 1% acetic acid alone, incubated for 20 minutes in TRIS 10 mM pH 10.5 and, lastly, readings were taken at 540 nm. To evaluate the ability of the liposome to transport CPT 83 in vitro in M109 cells the sulforhodamine B test described above was used. In addition, the cytotoxicity of CPT 83 dissolved in dimethyl-sulphoxide (DMSO) was also evaluated as compared to that of the same molecule complexed with the ST 983 liposome. The liposome-CPT 83 complex was used in the cytotoxicity assays at the concentrations indicated in Tables 2.1, 2.2 and […] here below in both the SUV and MLV configurations. The liposome:CPT 83 molar ratio used was 40:1.

HeLa cells = conditions: liposome 9 μM, 2.5 μg plasmid DNA, versus DOTAP, FIGS. 1 and 2
Method: Liposome and plasmid DNA were suitably diluted separately in PBS. The DNA was then added to the liposome and the liposome-DNA complex was left for approximately 30 min at 4° C. to facilitate the formation of a stable liposome-DNA interaction.
In the in-vitro experiments, 1,2-dioleoyloxy-3-trimethyl-ammonium propane (DOTAP) was used as a reference cationic lipid; 2.5 μg of plasmid DNA were used per 2×10^5 HeLa cells, and the liposome concentration was 9 μM.
5 μg of the DNA extracted from the cells were preabsorbed on nylon filters (Boehringer) using the Biorad dot-blot appliance. The filters were then prehybridised for 4 hours at 65° C. with a solution containing 0.5 M of sodium pyrophosphate (NaPi), 1 mM EDTA, 7% SDS. […] The autoradiographic analysis was carried out with the aid of a phosphor imager which uses phosphor screens activated by beta-radiation which are read and quantified by means of a photomultiplier system in conjunction with an image analysis program. […]
As an alternative, the transfection efficiency of a number of cationic liposomes was evaluated by means of densitometric analysis (phosphor imager) of samples of DNA extracted from transfected cells preabsorbed on nitrocellulose filters (dot-blot) and hybridised with ^32P-labelled plasmid DNA markers, as described previously.

[1] = tested on: murine pulmonary carcinoma M109
Method: To induce the tumour in vivo, unanaesthetised Balb/c mice received injections of 3×10^5 cells of murine pulmonary carcinoma M109 in 0.1 ml RPMI-1640 (Sigma) in the quadriceps femoris of the right rear paw.
Taxol (paclitaxel INDENA) used as a control was dissolved in the cremophor vehicle EL (BASF) at a concentration of 20 mg/mL and stored at +4° C. for the next 24 hours, protected against the light. At the time of use, it was diluted with phosphate-buffered saline solution (PBS, SIGMA) and injected intravenously in the same volume and concentration conditions as described for taxol transported by the ST 983 liposome.
The cremophor was prepared by diluting 1:1 with ethyl alcohol.
Administrations were given for seven consecutive days starting from day 10 after inoculation of the tumour. The animals were kept under observation up to day 17 post-inoculation and sacrificed by cervical dislocation, and their lungs were removed for determination of the number of metastases. Staining of the lungs to detect metastases was done by incubating the lungs for 10 days in 5 ml of Bouin's solution, consisting of 71% saturated picric acid solution, 4.8% glacial acetic acid (Merck), and 24% 10% formaldehyde (Fluka). At the end of the incubation period in Bouin's solution, the numbers of metastases were counted.
Statistical analysis of the data for the number of lung metastases was done using the Mann-Whitney non-parametric tests for unpaired data.

[2] = tested on: luciferase gene of pCMVluc plasmid in liver, lung and heart; experiment: In-vivo plasmid DNA transfection test (luciferase activity in tissues); design: species or system Balb/c mice; conditions: molar ratio 12:1
[3] = tested on: luciferase gene of pCMVluc plasmid in liver, lung and heart; experiment: as above; design: species or system Balb/c mice
Method: In the in-vivo experiments, both DOTAP and [2,3-(dioleoyl)propyl]trimethylammonium (DOTMA) were used as reference cationic lipids.
The molar ratios defined in the results refer to nmol concentrations of the respective cationic lipids per […] of DNA.
In the in-vivo transfection experiments, 25 μg of plasmid DNA per animal were used.
The plasmid pCMVluc used in these experiments contained the cDNA of the luciferase gene under the transcriptional control of the cytomegalovirus (CMV) promoter.
Protein luciferase activity in cells and tissues was determined using the Boehringer Mannheim kit (cat no. 1669 893).
The cells were washed 3 times in PBS and then removed from the plate with a scraper in lysis buffer (100 mM potassium phosphate pH 7.8. 1 mM dithiothreitol-DTT) and submitted to three consecutive cycles of freezing and thawing. After centrifuging in 1.5 mL Eppendorf tubes, the supernatant was used for the luminescence test not more than 5 hours after extraction of the proteins. Luminescence emission measurements were done using a luminometer at 562 nm. After a first freezing in liquid N2 followed by fine crushing to obtain a powder, the tissues were resuspended in lysis buffer and incubated for 10-15 min in ice.
The samples were then centrifuged in 2 ml Eppendorf tubes and the supernatant was tested for luciferase activity.
Both DOTAP and DOTMA were used as reference cationic lipids, the transfection capacity of which has been amply characterised and described by Abkenet et al., Proc. Natl. Acad. Sci. USA 1993, 90, 6518. In the in-vivo experiments, various different molar ratios of cationic lipids to plasmid DNA were analysed for the purposes of determining the activity of the cationic lipids and the respective most efficient concentrations for gene transfer. The transfection capability of the various liposomes was evaluated both in vitro and in vivo using the luciferase gene […] contained in the pCMVluc plasmid, the activity of which, in terms of relative luminescence units (RLU) (described previously) made for easy quantification.
In this experiment, the dependence of liver, lung and heart transfection efficiency on the ST 983 liposome:plasmid DNA molar ratio was evaluated. The following nmol ratios of liposome per μg DNA were tested: 12:1, 24:1, 36:1 and 48:1.
Groups of 6 Balb/c mice weighing approximately 20 g were treated intravenously with the above-mentioned amounts of liposome-DNA complex in 200 μl volumes of PBS and were sacrificed 24 hours after administration of the complex.

[4] = liposome/DNA preincubation time 30 min.
[5] = liposome/DNA preincubation time 3 h
[6] = ST 983:DNA molar ratio 24:1, i.v., 24 hours
[7] = ST 983:DNA molar ratio 36:1, i.v., 24 hours
[8] = ST 983:DNA molar ratio 48:1, i.v., 24 hours
[9] = liposome:DNA molar ratio 12:1, i.v., 24 hours

CC[C@@]1(O)C(=O)OCc2c1cc1n(c2=O)Cc2c-1nc1ccccc1c2C#N [CPT 83, 7-carbonitrile camptothecin]
optical density reading at 540 nm (Mean) (M109 cells; 0.0013 μM): 0.8399
optical density reading at 540 nm (single reading) (M109 cells; 0.0013 μM): 0.863 and 0.795 and 0.831 and 0.878 and 0.809 and 0.816 and 0.886 and 0.841
optical density reading at 540 nm (Mean) (M109 cells; 0.013 μM): 0.82
optical density reading at 540 nm (single reading) (M109 cells; 0.013 μM): 0.851 and 0.79 and 0.806 and 0.81 and 0.8 and 0.804 and 0.863 and 0.836
optical density reading at 540 nm (Mean) (M109 cells; 0.13 μM): 0.4446
optical density reading at 540 nm (single reading) (M109 cells; 0.13 μM): 0.474 and 0.467 and 0.429 and 0.421 and 0.406 and 0.407 and 0.57 and 0.383
optical density reading at 540 nm (Mean) (M109 cells; 1.3 μM): 0.309
optical density reading at 540 nm (single reading) (M109 cells; 1.3 μM): 0.318 and 0.317 and 0.328 and 0.305 and 0.33 and 0.302 and 0.285 and 0.287
optical density reading at 540 nm (Mean) (M109 cells; 13 μM): 0.2921
optical density reading at 540 nm (single reading) (M109 cells; 13 μM): 0.285 and 0.288 and 0.312 and 0.318 and 0.281 and 0.267 and 0.3 and 0.286

ester of propionyl L-carnitine bromide with 2-hydroxy acetyl 1,3 dipalmitoyl glycerol [ST 772]
amounts of plasmid DNA in transfected cells (blot analysis) (HeLa cells): same order of magnitude as obtained with DOTAP

CC(=O)O[C@H]1C(=O)[C@@]2(C)[C@H]([C@H](OC(=O)c3ccccc3)[C@]3(O)C[C@H](OC(=O)[C@H](O)[C@@H](NC(=O)c4ccccc4)c4ccccc4)C(C)=C1C3(C)C)[C@]1(OC(C)=O)CO[C@@H]1C[C@@H]2O [Taxol, paclitaxel]
effect on pulmonary metastases compared to untreated control mice ([1]; M109, Balb/c mice, i.v.): no reducing effect on the number of pulmonary metastases
metastases size ([1]; lung metastases at 17th day after M109 inoculation, BALB/c mice): S (S = small (<1 mm diameter))
metastases Mean ± s.d ([1]; lung metastases at 17th day after M109 inoculation, BALB/c mice, i.v. for seven consecutive days from day 10): 22 ± 9

CCCCCCCCCCCCCCCC(=O)O[C@H](CC(=O)OCCCCCCCCCCC)C[N+](C)(C)C.[Cl-] [ST 983, palmitoyl L-carnitine chloride undecyl ester]
Mean RLU/mg protein ± s.d. heart [2, 4]: 8118 +/− 263 RLU/mg protein
Mean RLU/mg protein ± s.d. liver [2, 4]: 3526 +/− 260 RLU/mg protein
Mean RLU/mg protein ± s.d. Lung [2, 5]: 4225656 +/− 211731 RLU/mg protein
Mean RLU/mg protein ± s.d. heart [2, 5]: 37100 +/− 1853 RLU/mg protein
Mean RLU/mg protein ± s.d. Lung [3, 6]: 2257856 +/− 280480 RLU/mg protein
Mean RLU/mg protein ± s.d. heart [3, 6]: 7091 +/− 249 RLU/mg protein
Mean RLU/mg protein ± s.d. liver [3, 6]: 1310 +/− 385 RLU/mg protein
Mean RLU/mg protein ± s.d. Lung [3, 7]: 301107 +/− 21503 RLU/mg protein
Mean RLU/mg protein ± s.d. heart [3, 7]: 8351 +/− 477 RLU/mg protein
Mean RLU/mg protein ± s.d. liver [3, 7]: 1035 +/− 347 RLU/mg protein
Mean RLU/mg protein ± s.d. Lung [3, 8]: 112747 +/− 5655 RLU/mg protein
Mean RLU/mg protein ± s.d. heart [3, 8]: 5251 +/− 489 RLU/mg protein
Mean RLU/mg protein ± s.d. liver [3, 8]: 1571 +/− 156 RLU/mg protein
share of the total luciferase extracted from lung, heart and liver located in the lungs ([3]; all molar ratios analysed): approximately 99%
Mean RLU/mg protein ± s.d. Lung ([3]; liposome/DNA preincubation time 30 min., molar ratio 12:1): 874882 +/− 65917 RLU/mg protein
Mean RLU/mg protein ± s.d. liver ([3]; liposome/DNA preincubation time 3 h, molar ratio 12:1): 2497 +/− 682 RLU/mg protein
Mean RLU/mg protein ± s.d. Lung [3, 9]: 8818442 +/− 449529 RLU/mg protein
Mean RLU/mg protein ± s.d. heart [3, 9]: 28875 +/− 2593 RLU/mg protein
Mean RLU/mg protein ± s.d. liver [3, 9]: 2589 +/− 140 RLU/mg protein
in-vivo plasmid DNA transport efficiency compared with DOTMA ([3]; lung, molar ratio 12:1): efficiency ratings higher than and/or comparable to those of DOTMA
increase in luciferase activity in the lung and heart, 3 hours versus 30 minutes preincubation ([3]; molar ratio 12:1): approximately 5 fold
